The target in assay [1] is T1, Orco-Or47a (Drosophila melanogaster, UniProt P81921+Q9VNB5).
T1 sequence (Q9VNB5 1-486): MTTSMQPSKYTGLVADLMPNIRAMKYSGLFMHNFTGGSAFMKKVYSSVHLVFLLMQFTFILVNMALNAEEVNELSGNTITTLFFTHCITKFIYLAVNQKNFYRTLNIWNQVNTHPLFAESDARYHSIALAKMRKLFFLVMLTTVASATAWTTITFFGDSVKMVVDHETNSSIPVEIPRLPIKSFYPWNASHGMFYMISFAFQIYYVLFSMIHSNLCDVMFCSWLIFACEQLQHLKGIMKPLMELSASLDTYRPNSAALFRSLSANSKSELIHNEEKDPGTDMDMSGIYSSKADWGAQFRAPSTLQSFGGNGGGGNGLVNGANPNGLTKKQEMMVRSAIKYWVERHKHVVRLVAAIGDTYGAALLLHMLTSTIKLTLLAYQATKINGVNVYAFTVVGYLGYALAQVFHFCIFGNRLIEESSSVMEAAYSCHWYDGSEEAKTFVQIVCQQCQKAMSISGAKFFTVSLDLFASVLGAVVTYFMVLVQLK
T1 sequence (P81921 1-385): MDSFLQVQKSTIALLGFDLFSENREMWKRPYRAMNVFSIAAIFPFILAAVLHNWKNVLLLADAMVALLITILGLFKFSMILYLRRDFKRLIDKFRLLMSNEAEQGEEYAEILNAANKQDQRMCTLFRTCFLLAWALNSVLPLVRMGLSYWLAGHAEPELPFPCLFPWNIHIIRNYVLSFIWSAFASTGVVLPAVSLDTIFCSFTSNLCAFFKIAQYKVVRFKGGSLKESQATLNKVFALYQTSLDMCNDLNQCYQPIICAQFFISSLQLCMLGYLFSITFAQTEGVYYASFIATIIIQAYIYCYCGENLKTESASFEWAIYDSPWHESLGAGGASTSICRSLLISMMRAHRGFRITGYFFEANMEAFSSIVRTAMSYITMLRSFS
As to the kind of experiment: Ligand assay using a perfusion system. It is filed as cell-based. More on the design: remnant residues; expressed in transfected cells; host or cells: Pv11 cells (Polypedilum vanderplanki), CRIS-PITCh knock-in at the Pv.00443 locus downstream of the 121 promoter, Zeocin selection and single-cell sorting. The note with it: 1 mM pentyl acetate perfused 5 minutes at 1 mL/min; BAM-fixed cells. The procedure: 9.1 Ligand assay. A ligand assay was performed using a perfusion system using Orco-Or47a stable expression cell line and GCaMP6f stable expression cell line. […] The Orco-Or47a stable expression cell line and the GCaMP6f stable expression cell line were fixed with BAM as described in 8.1 above and perfused at a flow rate of 1 mL/min using a peristaltic pump (SJ-1211 II-L2, ATTO). The perfusion solution was ACSF buffer (125 mM NaCl, 5.6 mM KCl, 1.25 mM Na2HPO4, 10 mM HEPES, 1.5 mM CaCl2), pH7.4) as a standard solution. As a ligand for Or47a, pentyl acetate was diluted to a final concentration of 1 mM, and as a negative control, DMSO was diluted to 1% by mass. The standard solution was perfused, switched to 1 mM pentyl acetate solution or 1% by mass DMSO solution, and perfusion was performed for 5 minutes. Photographing of the cells was started after waiting for the 1 mM pentyl acetate solution or 1% by mass DMSO solution to reach the cells in about 60 seconds. Bright-field and fluorescence images of the perfused Pv11 cells were taken 30 times at 10-second intervals (LSM700, ZEISS). The method for obtaining ΔF/F0 was as described above. 25 cells were selected from the captured image, each produced ΔF/F0, and the response was maintained for about 4 minutes; from this it was confirmed that the present disclosure can be applied as an odor sensor capable of rapid odor determination.

Assay [2] addresses T2, Orco (Drosophila melanogaster, UniProt Q9VNB5).
T2 construct: remnant residues; expressed in transfected cells; host or cells: Pv11 cells (Polypedilum vanderplanki), knock-in at the Pv.00443 locus downstream of the 121 promoter, single-cell sorting
T2 sequence (Q9VNB5 1-486): T1 sequence (Q9VNB5 1-486)
As to the kind of experiment: Exogenous membrane protein function after drying-rehydration, Orco stable expression cell line. It is filed as cell-based. The note with it: 1 hour after drying and rehydration. The procedure:
To assess the drought tolerance of the cell lines, the cells were dried according to the following protocol. 4×10^7 Pv11-GCaMP6f stable expression cell lines were centrifuged at 700 g for 3 minutes and the supernatant removed. The precipitated cells were suspended in a 600 mM trehalose mix of 600 mM trehalose and IPL-41 medium at a ratio of 9:1, transferred to a 2 ml flask, and incubated at 25° C. for 48 hours. After 48 hours, the obtained cells were centrifuged at 700 g for 3 minutes and the supernatant was removed. The sedimented cells were suspended in 400 μl of 600 mM trebalose mix, and 40 μl were dropped onto a 35 mm dish. […]
6. […] Using the Orco stable expression cell line and Orco-Or47a stable expression cell line, in order to assess the function of exogenous membrane proteins before drying and after 1 hour of rehydration after drying, fluorescence intensity generated in response to stimulation with VUAA1 (Orco agonist) or pentyl acetate (ligand of Or47a) was measured in the same manner as in 3.2 above.
The fluorescence intensity was digitized from the photograph, and ΔF/F was calculated according to the following formula:
Where the summation Σi=1^n is over the n cells in the image, Fi,after means the fluorescence intensity of the cell i after adding the ligand solution, and Fi,0 means the fluorescence intensity of the cell i before adding the ligand solution. […]

The structures appear in SMILES notation.

Turning to `CCCCCOC(C)=O` [pentyl acetate], in assay [1], the “time the response was maintained” value is on record as “about 4 minutes”. On to `CCc1ccc(NC(=O)CSc2nnc(-c3cccnc3)n2CC)cc1` [VUAA1, N-(4-ethylphenyl)-2-{[4-ethyl-5-(pyridin-3-yl)-4H-1,2,4-triazol-3-yl]sulfanyl}acetamide], for which the fluorescence on stimulation result in assay [2] is “fluorescence was observed”.

For the origin of these results see patent US20250197799A1, “CELLS DERIVED FROM POLYPEDILUM VANDERPLANKI AND ODOR SENSOR EQUIPPED THEREWITH” (University of Maryland, College Park, priority 2022, published 2025).
